Data from patent publication US10046038B2, “Leptospira with increased antigenic mass” (priority 2012, dated 2018).
Read-outs that look alike come from different tables or passages of the source.

Legend:
[1] = test system: Leptospira serogroup Australis (serovar Bratislava); format: cell-based, L. interrogans (sensu lato)
[2] = test system: Leptospira serogroup Tarassovi; format: cell-based, L. interrogans (sensu lato)
Description: (§1) All experiments were performed in 0.5, 2 or 20 L working volume, computer-controlled fermenters (Sartorius), which were filled with 0.5, 1 or 10 L sterile-filtered EMJH medium, respectively. The standard EMJH medium contained 1% w/v BSA and 0.125% w/v polysorbate 80. The pH of the medium was 7.4 ±0.1 at start. The fermenter was inoculated with 5% v/v serogroup lcterohaemorrhagiae pre-culture (passage 5), giving an inoculation density of 2-4×10^7 cells/ml at day 0.
(§2) Supplementation was done either with pure linoleic acid (Sigma Aldrich, >99% pure) as a 10% v/v stock in absolute ethanol (JT Baker). Alternatively, linoleic acid was supplemented by using a BSA that was created with a high level of linoleic acid (high LA BSA). This high LA BSA was used either to replace a standard BSA in EMJH medium, or was used in addition to BSA in the EMJH medium, in which case it was added as a 25% w/v stock solution in sterile water. The high LA BSA or the pure linoleic acid/ethanol supplements were fed to a fermenter over the course of 4 hours, at 0.1-0.2 ml/hour, until the fermenter culture had received a desired total amount of linoleic acid. Different total available levels of linoleic acid have been tested, of between about 5 and 425 μg/ml in the total volume. The fermenter cultures of Leptospira were supplemented at different cell-densities i.e. at early-, mid- or end phase culture.
(§3) Daily 5 ml samples were taken aseptically, directly from the fermenter, for analyses of total cell count (by Petroff-Hausser counting chamber); antigenic mass (by antigen amount Elisa); inactivated cells; and for profiling of the fatty acid type and-relative amounts (by gas chromatography) in the culture medium.
(§4) Samples were inactivated with 0.1 or 0.2% v/v BPL, at 29° C. for 16-24 hours. The inactivated Leptospira were tested in an antigen Elisa within 24 hours.
(§5) For a reference see: R. A. Hartskeerl et al., (International course on laboratory methods for the diagnosis of Leptospirosis, 4th Edition, 1 Apr. 2004. Royal Tropical Institute, Amsterdam).
(§6) The Elisa's were set up as capture assays, whereby the same moab was used for coating and for detection.
(§7) A reference standard was prepared for each Leptospira strain that was tested by antigen Elisa. The standard is a batch of monovalent Leptospira antigen, from inactivated cells. This was prepared using common techniques, essentially by proliferating a specific strain of Leptospira in EMJH medium as described above, and was inactivated as described before. Next the standard was concentrated and/or diluted in phosphate buffered saline, to contain about 1×10^9 cells/ml. An arbitrary number of antigen units was affixed to the sample, for example: 1000 Units/ml. When the standard needed replenishing, a subsequent preparation of the same standard, was compared and titrated alongside the old standard several times, before replacing it.
(§8) As before, the average antigenic mass score by Elisa was calculated per 1×10^9 cells (pre-inactivation). […] The average antigenic mass 1×10^9 cells of the reference culture was set at 0% increase.
Both alpha-and gamma C18:3 were purchased as pure chemicals (>98%).

[3] = test system: Leptospira serogroup Grippotyphosa; format: cell-based, L. interrogans (sensu lato)
[4] = test system: Leptospira serogroup Icterohaemorrhagiae; assay: Antigenic mass of fermenter culture by antigen Elisa; format: cell-based, L. interrogans (sensu lato); settings: for Ag U/10^9 cells/ml, at 3 days: BSA ingredient in EMJH medium, not supplemented
Description: A working seed of a strain of L. interrogans was inoculated into EMJH medium and incubated at 29° C. for 3 to 5 days. If needed up to 5 consecutive pre-culture passages could be made, whereby the pre-cultures were visually inspected for sufficient proliferation (turbidity) as criterion for transfer to the next passage.
as §1
(§9) During all fermentation experiments the temperature was controlled at about 29° C. The medium was aerated with headspace airflow, and the dissolved oxygen (pO2) concentration was controlled by automatic variation of the agitation-rate, to maintain a set pO2 concentration. Temperature, pH and pO2 concentration were monitored online, but pH and foam formation were not controlled.
In comparative experiments up to 4 fermenters were run in parallel, which started off simultaneously with the same medium and Leptospira inoculum. One fermenter then usually contained only standard EMJH medium and served as reference, while in the others different supplementations of polyunsaturated C18 fatty acid were made.
as §2, §3, §4, §5, §6
A reference standard was prepared for each Leptospira strain that was tested by antigen Elisa. The standard is a batch of monovalent Leptospira antigen, from inactivated cells. This was prepared using common techniques, essentially by proliferating a specific strain of Leptospira in EMJH medium as described above, and was inactivated as described before.

[5] = test system: Leptospira serogroup Canicola (strain WS 280503)
Description: as §1, §3, §4, §5, §6, §7, §8
(§10) Both alpha-and gamma C18:3 were purchased as pure chemicals (>98%). Shortly before use for supplementation, they were diluted in pure ethanol to 10% or 20% v/v, depending on the amount of C18:3 that was to be added to a culture. This dilution in ethanol was added to a Leptospira culture by addition in 5 doses, divided over a period of 4 hours.

[6] = test system: Leptospira serogroup Pomona
Description: as §1, §3, §4, §5, §6, §7, §8, §10

[7] = test system: Leptospira serogroup Icterohaemorrhagiae; assay: Biomass (total cell count) and toxicity in fermenter culture; format: cell-based, L. interrogans (sensu lato)
Description: as §9

[8] = test system: Leptospira serogroup Sejroe (serovar Hardjo); assay: Antigenic mass of fermenter culture by antigen Elisa; format: cell-based, L. interrogans (sensu lato); settings: high LA BSA in EMJH
Description: as §2, with “culture. Typical mid-phase cell density was at about 5×10^8 cells/ml, which was reached during day 2 of the main incubation. Upon supplementation with linoleic acid from the pure linoleic acid in ethanol stock, sometimes a small decrease in pH was noted, which was corrected by applying some NaOH.” for “culture.”
In a next study it was confirmed that the increase in antigenic mass upon supplementation with linoleic acid (C18:2) is a general phenomenon in Leptospira. […]

[9] = 100 μg/ml, alpha vs gamma side by side, FIGS. 19 and 20
[10] = supplementation at 5×10^8 cells/ml, FIGS. 33-36
[11] = supplementation at 8×10^8 cells/ml, FIGS. 33-36
[12] = BSA used in EMJH medium, compared with standard BSA

CCC=CCC=CCC=CCCCCCCCC(=O)O [alpha C18:3, 9, 12, 15-octadecatrienoic acid]
Relative increase in antigenic mass (%) ([1]; 100 μg/ml alpha C18:3): 40% | Relative increase in antigenic mass (%) ([1]; 200 μg/ml alpha C18:3): 62% | Relative increase in antigenic mass (%) ([2]; 100 μg/ml alpha C18:3): 59% | Relative increase in antigenic mass (%) ([2]; 200 μg/ml alpha C18:3): 141% | Relative increase in antigenic mass (%) ([3]; 100 μg/ml alpha C18:3): 60% | Relative increase in antigenic mass (%) ([3]; 200 μg/ml alpha C18:3): 63% | increase in relative antigenic mass ([4]; 100 μg/ml single fatty acid, FIGS. 37 and 38): 144% | increase in relative antigenic mass [4, 9]: 122% | increase in antigenic mass ([4]; 100 μg/ml, FIGS. 15 and 16, vs unsupplemented reference): 122% | increase in antigenic mass ([4]; 200 μg/ml, FIGS. 15 and 16, vs unsupplemented reference): 81% | Relative increase in antigenic mass ([4]; supplementation at 1×10^8 cells/ml, FIGS. 33-34): 163% | Relative increase in antigenic mass [4, 10]: 164% | Relative increase in antigenic mass [4, 11]: 140% | Relative increase in antigenic mass (%) ([5]; 200 μg/ml): 107% | Relative increase in antigenic mass (%) ([5]; 300 μg/ml): 112% | Relative increase in antigenic mass (%) ([5]; 400 μg/ml): 118% | Relative increase in antigenic mass (%) ([6]; 100 μg/ml alpha C18:3): 0% | Relative increase in antigenic mass (%) ([6]; 200 μg/ml alpha C18:3): 0% | toxicity on the culture ([7]; 300 or 400 μg/ml, FIGS. 15 and 16): toxic effects

CCCCCC=CCC=CCC=CCCCCC(=O)O [gamma C18:3, 6,9, 12-octadecatrienoic acid]
Relative increase in antigenic mass (%) ([1]; 100 μg/ml gamma C18:3): 15% | Relative increase in antigenic mass (%) ([2]; 100 μg/ml gamma C18:3): 51% | Relative increase in antigenic mass (%) ([3]; 100 μg/ml gamma C18:3): 57% | increase in relative antigenic mass [4, 9]: 170% | increase in antigenic mass ([4]; 200 μg/ml, FIGS. 17 and 18): 114% | increase in antigenic mass ([4]; 300 μg/ml, FIGS. 17 and 18): 153% | Relative increase in antigenic mass ([4]; supplementation at 2×10^8 cells/ml, FIGS. 35-36): 71% | Relative increase in antigenic mass [4, 10]: 81% | Relative increase in antigenic mass [4, 11]: 162% | Relative increase in antigenic mass (%) ([5]; 200 μg/ml): 98% | Relative increase in antigenic mass (%) ([5]; 300 μg/ml): 83% | Relative increase in antigenic mass (%) ([6]; 100 μg/ml gamma C18:3): 73% | toxicity on the culture ([7]; 400 μg/ml, FIGS. 17 and 18): showed toxicity

BSA, BovoLep ®: standard BSA enriched with a number of vegetable fatty acids, recommended for promoting growth of Leptospira (Bovogen, Australia)
Ag U/10^9 cells/ml, at 3 days [4]: 498 Ag U/10^9 cells/ml | effect on antigenic mass [4, 12]: no significant effect | effect on biomass [7, 12]: did increase the biomass

BSA, BovoStar ®: a standard all-purpose BSA from the same manufacturer (Bovogen)
Ag U/10^9 cells/ml, at 3 days [4]: 533 Ag U/10^9 cells/ml

BSA, Millipore: standard commercial BSA (Millipore)
Ag U/10^9 cells/ml, at 3 days [4]: 525 Ag U/10^9 cells/ml

high LA BSA: a BSA that was created with a high level of linoleic acid
relative Ag. mass (%) ([3]; high LA BSA in EMJH, C18:2 total 25 μg/ml (reference = 100), 2 day average): 100% | Antigenic mass, Ag U/10^9 cells/ml ([3]; high LA BSA in EMJH, C18:2 total 25 μg/ml, 2 day average (days 4 and 5)): 5074 Ag U/10^9 cells/ml | antigenic mass ([4]; high LA BSA at 1% w/v in EMJH, 25 μg/ml linoleic acid available, average of days 3-5): 1636 Ag U/1×10^9 cells | Ag. mass, Ag U/10^9 cells/ml ([4]; supplem. high LA BSA giving 50 μg/ml C18:2, total 55 μg/ml, EMJH standard BSA, average of days 3-5): 1612 Ag U/10^9 cells/ml | relative Ag. mass (%) ([4]; supplem. high LA BSA giving 50 μg/ml C18:2, total 55 μg/ml, non-supplemented = 100, average of days 3-5): 221% | relative Ag. mass (%) ([8]; C18:2 total 25 μg/ml (reference = 100), 2 day average): 100% | Antigenic mass, Ag U/10^9 cells/ml ([8]; C18:2 total 25 μg/ml, 2 day average (days 5 and 6)): 287 Ag U/10^9 cells/ml
